Here are results for 3 compounds from ChEMBL document CHEMBL3112428, “Biological evaluation of diazene derivatives as anti-tubercular compounds” (Eur J Med Chem, 2014).

The source made the active and inactive calls. The calls are words filed in the database; no cut-off is given here.

Type in all cases: functional, organism-based
In assay [1] the test system is Mycobacterium tuberculosis. The assay is described as follows: Antituberculosis activity against multidrug-resistant Mycobacterium tuberculosis LAM1 assessed as growth inhibition at <= 10 ug/ml measured everyday by BACTEC assay.
In assay [2] the test system is Mycobacterium tuberculosis. The assay is described as follows: Antituberculosis activity against multidrug-resistant Mycobacterium tuberculosis LAM1 assessed as growth inhibition at 1 to 5 ug/ml measured everyday by BACTEC assay.
Assay [3] deals with Mycobacterium tuberculosis. In words: Antituberculosis activity against multidrug-resistant Mycobacterium tuberculosis LAM1 assessed as growth inhibition at 0.1 ug/ml measured everyday by BACTEC assay.

Consider `CCOC(=O)/N=N/C(=O)Nc1ccc(C)cc1`, for which the “growth inhibition (GI)” value in assay [1] was “inactive”. For the compound `O=C(/N=N/c1ccc(C(F)(F)F)cc1)Nc1ccccc1`, the “growth inhibition (GI)” value in assay [2] is “Active”.

For `NNC(=O)c1ccncc1` [ISONIAZID], in assay [3], the “growth inhibition (GI)” value is “inactive”.
